Test results: patent publication US5593984A, “Cephalosporin derivatives” (Yuhan Corporation, priority 1992, dated 1997)
Converted amounts (≈) assume the structure as drawn.

Columns and labels:
Assay type in all cases: cell-based
[1] = system: Staph. aureus Smith; test: MIC by agar dilution, Staph. aureus Smith; details: Staphylococcus aureus, 17 h, Mueller-Hinton agar, read-out: Minimal Inhibitory Concentration (MIC)
Experimental: (§1) These MIC values were determined by agar dilution method: that is, two-fold dilutions of each of the test compounds were made and dispersed in a Mueller-Hinton agar medium; standard test strain which had the 10^6 CFU (Colony Forming Unit) per ml was inoculated on the medium with microplanter (Toyo, Japan), and incubated at 35°-37° C. for 17±1 hours. The structures of Ceftazidime (CAZ) and Cefotaxime (CTX) which are used as control compounds are as follows: [drawing 12]

[2] = system: K. pneumoniae NCTC 9632; test: MIC by agar dilution, K. pneumoniae NCTC 9632; details: Klebsiella pneumoniae, NCTC9632, 17 h; K. pneumoniae NCTC 9632; agar dilution, Mueller-Hinton agar; read-out: Minimal Inhibitory Concentration (MIC)
Experimental: as §1

[3] = system: Ps. aeruginosa NCTC 10490; test: MIC by agar dilution, Ps. aeruginosa NCTC 10490; details: Pseudomonas aeruginosa, NCTC10490, 17 h, Mueller-Hinton agar, read-out: Minimal Inhibitory Concentration (MIC)
Experimental: as §1

[4] = system: Ent. aerogenes IFO 12979; test: MIC by agar dilution, Ent. aerogenes IFO 12979; details: Klebsiella aerogenes, IFO12979, 17 h, Mueller-Hinton agar, read-out: Minimal Inhibitory Concentration (MIC)
Experimental: as §1

[5] = system: Staph. aureus ATCC 6538P; test: MIC by agar dilution, Staph. aureus ATCC 6538P; details: Staphylococcus aureus, ATCC6538P, 17 h; Staph. aureus ATCC 6538P; agar dilution, Mueller-Hinton agar; read-out: Minimal Inhibitory Concentration (MIC)
Experimental: as §1

[6] = system: Ent. cloacae IFO 13535; test: MIC by agar dilution, Ent. cloacae IFO 13535; details: Enterobacter cloacae, IFO13535, 17 h; Ent. cloacae IFO 13535; agar dilution, Mueller-Hinton agar; read-out: Minimal Inhibitory Concentration (MIC)
Experimental: as §1

[7] = system: Ps. aeruginosa ATCC 10145; test: MIC by agar dilution, Ps. aeruginosa ATCC 10145; details: Pseudomonas aeruginosa, ATCC10145, 17 h, Mueller-Hinton agar, read-out: Minimal Inhibitory Concentration (MIC)
Experimental: as §1

[8] = system: M. morganii DY-1; test: MIC by agar dilution, M. morganii DY-1; details: Morganella morganii, DY1, 17 h; M. morganii DY-1; agar dilution, Mueller-Hinton agar; read-out: Minimal Inhibitory Concentration (MIC)
Experimental: as §1

[9] = system: E. coli NIHJ JC-2; test: MIC by agar dilution, E. coli NIHJ JC-2; details: Escherichia coli, NIHJJC2, 17 h; E. coli NIHJ JC-2; agar dilution, Mueller-Hinton agar; read-out: Minimal Inhibitory Concentration (MIC)
Experimental: as §1

[10] = system: Ser. marcescens IFO 12648; test: MIC by agar dilution, Ser. marcescens IFO 12648; details: Serratia marcescens, IFO12648, 17 h; Ser. marcescens IFO 12648; agar dilution, Mueller-Hinton agar; read-out: Minimal Inhibitory Concentration (MIC)
Experimental: as §1

[11] = system: Staph. aureus C-5113; test: MIC by agar dilution, Staph. aureus C-5113; details: Staphylococcus aureus, C5113, 17 h, Mueller-Hinton agar, read-out: Minimal Inhibitory Concentration (MIC)
Experimental: as §1

[12] = system: P. vulgaris NCTC 8313; test: MIC by agar dilution, P. vulgaris NCTC 8313; details: Proteus vulgaris, NCTC8313, 17 h; P. vulgaris NCTC 8313; agar dilution, Mueller-Hinton agar; read-out: Minimal Inhibitory Concentration (MIC)
Experimental: as §1

[13] = system: E. coli DY-1; test: MIC by agar dilution, E. coli DY-1; details: Escherichia coli, DY1, 17 h; E. coli DY-1; agar dilution, Mueller-Hinton agar; read-out: Minimal Inhibitory Concentration (MIC)
Experimental: as §1

[14] = system: S. epidermidis ATCC 12228; test: MIC by agar dilution, S. epidermidis ATCC 12228; details: Staphylococcus epidermidis, ATCC12228, 17 h; S. epidermidis ATCC 12228; agar dilution, Mueller-Hinton agar; read-out: Minimal Inhibitory Concentration (MIC)
Experimental: as §1

[15] = system: Staph. aureus C-5216; test: MIC by agar dilution, Staph. aureus C-5216; details: Staphylococcus aureus, C5216, 17 h, Mueller-Hinton agar, read-out: Minimal Inhibitory Concentration (MIC)
Experimental: as §1

[16] = system: B. subtilis ATCC 6633; test: MIC by agar dilution, B. subtilis ATCC 6633; details: Bacillus subtilis, ATCC6633, 17 h; B. subtilis ATCC 6633; agar dilution, Mueller-Hinton agar; read-out: Minimal Inhibitory Concentration (MIC)
Experimental: as §1

[17] = system: E. coli No. 29; test: MIC by agar dilution, E. coli No. 29; details: Escherichia coli, 17 h; E. coli No. 29; agar dilution, Mueller-Hinton agar; read-out: Minimal Inhibitory Concentration (MIC)
Experimental: as §1

[18] = system: Prov. stuartii IFO 12930; test: MIC by agar dilution, Prov. stuartii IFO 12930; details: Providencia stuartii, IFO12930, 17 h, Mueller-Hinton agar, read-out: Minimal Inhibitory Concentration (MIC)
Experimental: as §1

[19] = system: Staph. aureus C-57; test: MIC by agar dilution, Staph. aureus C-57; details: Staphylococcus aureus, C57, 17 h, Mueller-Hinton agar, read-out: Minimal Inhibitory Concentration (MIC)
Experimental: as §1

[20] = system: Ps. aeruginosa DY-2; test: MIC by agar dilution, Ps. aeruginosa DY-2; details: Pseudomonas aeruginosa, DY2, 17 h; Ps. aeruginosa DY-2; agar dilution, Mueller-Hinton agar; read-out: Minimal Inhibitory Concentration (MIC)
Experimental: as §1

Row | Structure (SMILES) | MIC [1] | MIC [2] | MIC [3] | MIC [4] | MIC [5] | MIC [6] | MIC [7] | MIC [8] | MIC [9] | MIC [10] | MIC [11] | MIC [12] | MIC [13] | MIC [14] | MIC [15] | MIC [16] | MIC [17] | MIC [18] | MIC [19] | MIC [20]
1 | CO/N=C(\C(=O)N[C@@H]1C(=O)N2C(C(=O)[O-])=C(C[n+]3ccn4cccc4c3C)CS[C@H]12)c1nsc(N)n1 [Ex. 57, 7-β-[(Z)-2-(5-amino-1,2,4-thiadiazol-3-yl)-2-methoxyiminoacetamido]-3-(1-methylpyrrolo[1,2-a]-pyrazinium-2-yl)methyl-3-cephem-4-carboxylate] | 0.78 µg/mL (≈ 1.48 µM) | 0.012 µg/mL (≈ 0.0227 µM) | 0.2 µg/mL (≈ 0.378 µM) | 0.025 µg/mL (≈ 0.0473 µM) | 0.1 µg/mL (≈ 0.189 µM) | 0.1 µg/mL (≈ 0.189 µM) | 0.78 µg/mL (≈ 1.48 µM) | 0.05 µg/mL (≈ 0.0946 µM) | 0.012 µg/mL (≈ 0.0227 µM) | 0.025 µg/mL (≈ 0.0473 µM) | 0.2 µg/mL (≈ 0.378 µM) | 0.05 µg/mL (≈ 0.0946 µM) | 0.025 µg/mL (≈ 0.0473 µM) | 0.05 µg/mL (≈ 0.0946 µM) | 0.39 µg/mL (≈ 0.738 µM) | 0.2 µg/mL (≈ 0.378 µM) | 0.025 µg/mL (≈ 0.0473 µM) | 12 ng/mL (≈ 0.0227 µM) | 1.56 µg/mL (≈ 2.95 µM) | 1.56 µg/mL (≈ 2.95 µM)
2 | Nc1nc(C(=NOCF)C(=O)NC2C(=O)N3C(C(=O)[O-])=C(C[n+]4ccn5c(SCCO)ccc5c4)CSC23)cs1 (stereo not drawn) [Ex. 10, 7-β-[(Z)-2-(2-aminothiazol-4-yl)-2-fluoromethoxyiminoacetamido]-3-[6-(2-hydroxyethylthio)pyrrolo[1,2-a]pyrazinium-2-yl]methyl-3-cephem-4-carboxylate] | 0.1 µg/mL (≈ 0.165 µM) | 0.025 µg/mL (≈ 0.0411 µM) | 0.2 µg/mL (≈ 0.329 µM) | 0.05 µg/mL (≈ 0.0823 µM) | 0.1 µg/mL (≈ 0.165 µM) | 0.2 µg/mL (≈ 0.329 µM) | 0.78 µg/mL (≈ 1.28 µM) | 0.012 µg/mL (≈ 0.0197 µM) | 0.025 µg/mL (≈ 0.0411 µM) | 0.012 µg/mL (≈ 0.0197 µM) | 0.39 µg/mL (≈ 0.642 µM) | 0.012 µg/mL (≈ 0.0197 µM) | ≤ 0.006 µg/mL | 0.05 µg/mL (≈ 0.0823 µM) | 0.78 µg/mL (≈ 1.28 µM) | 0.1 µg/mL (≈ 0.165 µM) | ≤ 0.006 µg/mL | ≤ 6 ng/mL | 12.5 µg/mL (≈ 20.6 µM) | 3.13 µg/mL (≈ 5.15 µM)
3 | Nc1nc(C(=NOCF)C(=O)NC2C(=O)N3C(C(=O)[O-])=C(C[n+]4ccn5c(CO)ccc5c4)CSC23)cs1 (stereo not drawn) [Ex. 22, 7-β-[(Z)-2-(2-aminothiazol-4-yl)-2-fluoromethoxyiminoacetamido]-3-(6-hydroxymethylpyrrolo[1,2-a]pyrazinium-2-yl)methyl-3-cephem-4-carboxylate] | 0.78 µg/mL (≈ 1.39 µM) | ≤ 0.006 µg/mL | 0.1 µg/mL (≈ 0.178 µM) | ≤ 0.006 µg/mL | 0.2 µg/mL (≈ 0.356 µM) | 0.05 µg/mL (≈ 0.089 µM) | 0.39 µg/mL (≈ 0.694 µM) | ≤ 0.006 µg/mL | ≤ 0.006 µg/mL | ≤ 0.006 µg/mL | 1.56 µg/mL (≈ 2.78 µM) | ≤ 0.006 µg/mL | ≤ 0.006 µg/mL | 0.025 µg/mL (≈ 0.0445 µM) | 0.78 µg/mL (≈ 1.39 µM) | 0.1 µg/mL (≈ 0.178 µM) | ≤ 0.006 µg/mL | ≤ 6 ng/mL | 50 µg/mL (≈ 89 µM) | 1.56 µg/mL (≈ 2.78 µM)
4 | CON=C(C(=O)NC1C(=O)N2C(C(=O)[O-])=C(C[n+]3ccn4c(SCCN)ccc4c3)CSC12)c1csc(N)n1 (stereo not drawn) [Ex. 27, 7-β-[(Z)-2-(2-aminothiazol-4-yl)2-methoxyiminoacetamido]-3-[6-(2-aminoethylthio)pyrrolo[1,2-a]pyrazinium-2-yl]methyl-3-cephem-4-carboxylate] | 0.78 µg/mL (≈ 1.32 µM) | 0.012 µg/mL (≈ 0.0204 µM) | 0.2 µg/mL (≈ 0.34 µM) | ≤ 0.006 µg/mL | 0.2 µg/mL (≈ 0.34 µM) | 0.1 µg/mL (≈ 0.17 µM) | 0.78 µg/mL (≈ 1.32 µM) | 0.012 µg/mL (≈ 0.0204 µM) | ≤ 0.006 µg/mL | 0.012 µg/mL (≈ 0.0204 µM) | 0.78 µg/mL (≈ 1.32 µM) | ≤ 0.006 µg/mL | ≤ 0.006 µg/mL | 0.05 µg/mL (≈ 0.0849 µM) | 0.78 µg/mL (≈ 1.32 µM) | 0.1 µg/mL (≈ 0.17 µM) | ≤ 0.006 µg/mL | ≤ 6 ng/mL | 100 µg/mL (≈ 170 µM) | 1.56 µg/mL (≈ 2.65 µM)
5 | CO/N=C(\C(=O)N[C@@H]1C(=O)N2C(C(=O)[O-])=C(C[n+]3ccn4c(Br)ccc4c3C)CS[C@H]12)c1nsc(N)n1 [Ex. 59, 7-β-[(Z)-2-(5-amino-1,2,4-thiadiazol-3-yl)-2-methoxyiminoacetamido]-3-(6-bromo-1-methylpyrrolo[1,2-a]pyrazinium-2-yl)methyl-3-cephem-4-carboxylate] | 0.39 µg/mL (≈ 0.642 µM) | 0.025 µg/mL (≈ 0.0412 µM) | 1.56 µg/mL (≈ 2.57 µM) | ≤ 0.006 µg/mL | 0.1 µg/mL (≈ 0.165 µM) | 0.2 µg/mL (≈ 0.329 µM) | 1.56 µg/mL (≈ 2.57 µM) | 0.025 µg/mL (≈ 0.0412 µM) | 0.025 µg/mL (≈ 0.0412 µM) | 0.025 µg/mL (≈ 0.0412 µM) | 0.78 µg/mL (≈ 1.28 µM) | 0.012 µg/mL (≈ 0.0198 µM) | ≤ 0.006 µg/mL | 0.05 µg/mL (≈ 0.0823 µM) | 0.78 µg/mL (≈ 1.28 µM) | 0.1 µg/mL (≈ 0.165 µM) | 0.012 µg/mL (≈ 0.0198 µM) | ≤ 6 ng/mL | 6.25 µg/mL (≈ 10.3 µM) | 12.5 µg/mL (≈ 20.6 µM)
6 | CON=C(C(=O)NC1C(=O)N2C(C(=O)[O-])=C(C[n+]3ccn4c([N+](=O)[O-])ccc4c3)CSC12)c1csc(N)n1 (stereo not drawn) [Ex. 14, 7-β-[(Z)-2-(2-aminothiazol-4-yl)-2-methoxyiminoacetamido]-3-(6-nitropyrrolo[1,2-a]pyrazinium-2-yl)methyl-3-cephem-4-carboxylate] | 1.56 µg/mL (≈ 2.79 µM) | 0.05 µg/mL (≈ 0.0895 µM) | 1.56 µg/mL (≈ 2.79 µM) | 0.05 µg/mL (≈ 0.0895 µM) | 0.39 µg/mL (≈ 0.698 µM) | 0.78 µg/mL (≈ 1.4 µM) | 6.25 µg/mL (≈ 11.2 µM) | 0.05 µg/mL (≈ 0.0895 µM) | 0.1 µg/mL (≈ 0.179 µM) | 0.1 µg/mL (≈ 0.179 µM) | 3.13 µg/mL (≈ 5.6 µM) | 0.012 µg/mL (≈ 0.0215 µM) | 0.05 µg/mL (≈ 0.0895 µM) | 0.05 µg/mL (≈ 0.0895 µM) | 1.56 µg/mL (≈ 2.79 µM) | 0.39 µg/mL (≈ 0.698 µM) | 0.05 µg/mL (≈ 0.0895 µM) | ≤ 6 ng/mL | 25 µg/mL (≈ 44.8 µM) | 25 µg/mL (≈ 44.8 µM)
